“Also recorded” adds a separate entry of the source.
Columns and labels:
Assay type in all cases: cell-based
[1] = tested on: Pasteurella multocida; assay: Killing bacteria by melatonin above MBC (OD600, living bacteria count); details: for time to kill all bacteria: FIGS. 2 and 3
Description: Into 100 mL of fresh and sterile Martin broth medium, 1 mL of Pasteurella multocida (1×10^9 CFU) at the logarithmic growth stage was added. The bacteria were cultured in a constant-temperature shaker under conditions of 37° C. and 220 rpm for 8 hours. […] After the addition of MT, the bacterial culture was continuously measured for OD600 every 20 minutes to depict a growth curve under the action of melatonin at a concentration higher than the MBC. At the same time, 100 μL of the bacterial culture was evenly coated on a Martin agar plate, and incubated at 37° C. for 24 h so as to calculate the number of living bacteria for bacterial counting.

[2] = tested on: Pasteurella multocida; assay: Leakage of bacterial cell contents; details: MT 1-10 mg/mL, 12 h
Description: 1 mL of Pasteurella multocida (1×10^9 CFU) at the logarithmic growth stage was added into 100 mL of fresh and sterile Martin broth medium containing different concentrations (1 mg/mL, 2 mg/mL, 3 mg/mL, 4 mg/mL, 6 mg/mL, 8 mg/mL and 10 mg/mL) of MT. Melatonin-free DMSO was used as a solvent control group, ampicillin (100 μg/mL) was used as a positive control group, and bacterial cells were cultured in a shaker at 37° C. and 220 rpm for 12 h. Thereafter, 1 mL of the bacterial solution was taken and centrifuged at 3000 r/min for 10 minutes, and the supernatant and precipitated cells were collected, respectively. At the same time, 2.5 mmol/mL of o-nitrophenyl-β-D-galactopyranoside (ONPG) and Pasteurella multocida were added to detect β-galactosidase. The concentrations of protein, alkaline phosphatase (AKP) and reducing sugar in the supernatant were determined sequentially using respective determination kits. The β-galactosidase in the supernatant was determined by measuring the optical density at 420 nm (OD420). Each experiment was carried out for three times, and each group was set in triplicate.

[3] = tested on: citrate synthase of Pasteurella multocida; assay: Citrate synthase activity of bacteria after treatment; details: MT 1, 2, 3 mg/mL, 12 h; FIG. 15
Description: Based on the discovery of metabolomics, the enzyme activity of citrate synthase after melatonin treatment was studied. 1 mL of Pasteurella multocida (1×10^9 CFU) at the logarithmic growth stage was added into 100 mL of fresh and sterile Martin broth medium containing different concentrations (1 mg/mL, 2 mg/mL, and 3 mg/mL) of MT. Melatonin-free DMSO was used as a solvent control group, and the bacterial cells were cultured in a constant-temperature shaker at 37° C. and 220 rpm for 12 h. Thereafter, 1 mL of the bacterial solution was centrifuged at 3000 r/min for 10 minutes, and the supernatant and precipitated cells were collected, respectively. The citrate synthase activity was determined using a determination kit according to the protocol of the instructions. Each experiment was repeated for three times, and each group was set in triplicate. Further, 1 mL of Pasteurella multocida (1×10^9 CFU) at the logarithmic growth stage was added into 100 mL of fresh and sterile Martin broth medium containing different concentrations of melatonin and citric acid (MT-1 mg/mL, MT-2 mg/mL, MT-3 mg/mL, CA-1 mg/mL, CA-2 mg/mL, CA-3 mg/mL, MT-1 mg/mL-CA-1 mg/mL, MT-2 mg/mL-CA-2 mg/mL, MT-3 mg/mL-CA-3 mg/mL). […] The citrate synthase activity was determined using a determination kit according to the protocol of the instructions. […]

[4] = biological target: T1, citrate synthase in lung epithelial cells (Mus musculus, UniProt Q9CZU6); assay: Citrate synthase enzyme activity in lung epithelial cells; details: melatonin up to 40 mg/mL; 1MOI Pasteurella multocida, 12 h; FIG. 26
T1 construct: lysed by ultrasound at a low temperature, and then the enzyme activity of citrate synthase was analyzed; endogenous in cells; host or cells: mouse lung epithelial cells
Description: 2×10^5 mouse lung epithelial cells per well were inoculated into a 48-well microplate, and cultured in a 5% CO2 incubator at 37° C. until full confluence of the cells. The non-adherent cells were washed away with 1×PBS, and the cells were treated with melatonin with the final concentrations of 1, 2, 3, 10, 20 and 40 mg/ml, while the control group was treated with the same volume of DMSO. After melatonin treatment for 30 min, 1MOI Pasteurella multocida was added into the culture medium for continue culture. After 12 h, the bacterial cells were collected, lysed by ultrasound at a low temperature, and then the enzyme activity of citrate synthase was analyzed. For specific test steps, please refer to the kit for detecting the enzyme activity of the citrate synthase. Each experiment was repeated three times, and each group was set in hexaplicate.

T1 sequence (Q9CZU6 28-464): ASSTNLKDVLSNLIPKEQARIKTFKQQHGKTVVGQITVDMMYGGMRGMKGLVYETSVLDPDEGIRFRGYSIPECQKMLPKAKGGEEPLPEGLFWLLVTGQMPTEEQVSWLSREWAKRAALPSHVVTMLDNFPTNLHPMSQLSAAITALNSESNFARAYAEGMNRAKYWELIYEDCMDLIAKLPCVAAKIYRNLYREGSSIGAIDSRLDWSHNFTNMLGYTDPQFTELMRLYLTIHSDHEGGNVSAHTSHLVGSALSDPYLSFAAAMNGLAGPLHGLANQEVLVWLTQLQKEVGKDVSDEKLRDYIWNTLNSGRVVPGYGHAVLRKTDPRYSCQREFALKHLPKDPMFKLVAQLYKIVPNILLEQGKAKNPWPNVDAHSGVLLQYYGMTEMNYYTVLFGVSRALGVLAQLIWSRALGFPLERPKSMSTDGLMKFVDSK

Compound: COc1ccc2[nH]cc(CCNC(C)=O)c2c1 [melatonin, N-acetyl-5-methoxytryptamine]
- time to kill all bacteria ([1]; 4 mg/mL of melatonin, added after 8 hours culture): 10 h
- bactericidal effect ([1]; concentration higher than the MBC (4, 8, 10 mg/mL)): significant bactericidal effect in a dose-dependent manner
- time to kill all bacteria ([1]; higher concentration of melatonin (8, 10 mg/mL)): 4 h
- activity of extracellular β-galactosidase ([2]; OD420, FIG. 7): increase
- content of extracellular proteins ([2]; supernatant, FIG. 4): increase
- content of extracellular alkaline phosphatase ([2]; supernatant, FIG. 6): increase
- content of extracellular reducing sugar ([2]; supernatant, FIG. 8): increase
- activity of extracellular ATPase ([2]; FIG. 5): increase
- activity of citrate synthase in the bacteria and the culture medium [3]: significantly reduced; also recorded: significantly inhibiting
- enzyme activity of citrate synthase in lung epithelial cells [4]: did not affect
